Among the test systems are A549 NSCLC; UO-31 renal; M14 melanoma; OVCAR-8 ovarian; HOP-92 NSCLC; RXF 393 renal; NCI-H460 lung; OVCAR-3 ovarian.
Test in all cases: NCI-60 cell line screen, 48 h

The structures appear in SMILES notation.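 Cultured in 96-well plates, cells were exposed to test compound for 48 hours across five concentrations. GI50 = concentration required for 50% inhibition of growth. TGI marks complete inhibition of growth.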

In the case of `Cn1ncc2c(Nc3cccc(Cl)c3)nc(Nc3cccc(Cl)c3)nc21`, the TGI with A549 NSCLC is more than 53.4 µM; in the assay on UO-31 renal it was 35.4 µM; in the assay with M14 melanoma, more than 58.4 µM; with OVCAR-8 ovarian, more than 100 µM; in the assay with HOP-92 NSCLC it was 44.7 µM; with RXF 393 renal, 11.6 µM. Also, the results for the TGI in the assay on NCI-H460 lung and in the assay on OVCAR-3 ovarian were more than 30.9 µM and more than 66.6 µM, respectively.
As to `COC(=O)C1=COC(OC2OC(CO)C(O)C(O)C2O)C2C3CN4CCc5c([nH]c6ccccc56)C4(CC12)O3` (stereo not drawn), the TGI in the assay with A549 NSCLC, in the assay with UO-31 renal, with M14 melanoma, in the assay on OVCAR-8 ovarian, in the assay with RXF 393 renal and in the assay on NCI-H460 lung was more than 100 µM in each case. The compound further gave a TGI with OVCAR-3 ovarian of more than 100 µM.
For the compound `Cc1c(Cl)nc(Cl)nc1Cl`, the TGI stood at 7.34 µM in the assay on A549 NSCLC; 1.18 µM with UO-31 renal; 2.11 µM in the assay on M14 melanoma; 18.9 µM in the assay on OVCAR-8 ovarian; 4.99 µM in the assay with HOP-92 NSCLC; 4.07 µM in the assay on RXF 393 renal. The TGI in the assay on NCI-H460 lung is 20.1 µM; in the assay on OVCAR-3 ovarian, 3.25 µM.
`c1ccc(C(NC2=NCCO2)c2ccccc2)cc1`: the TGI with A549 NSCLC, in the assay with UO-31 renal, in the assay with M14 melanoma, with OVCAR-8 ovarian, with RXF 393 renal and in the assay on NCI-H460 lung was more than 10 µM each time. The compound also displayed a TGI in the assay with OVCAR-3 ovarian of more than 10 µM.
Take `C=CCN1C[C@H](C)N([C@@H](c2ccc(C(=O)N3CCCCC3)cc2)c2cccc(OC)c2)C[C@H]1C`: the TGI with A549 NSCLC was more than 100 µM; in the assay with UO-31 renal, more than 100 µM; in the assay on M14 melanoma, 34.9 µM; with OVCAR-8 ovarian, more than 100 µM; with HOP-92 NSCLC it was more than 100 µM; in the assay with RXF 393 renal it was more than 100 µM. For the same compound, the TGI with NCI-H460 lung and with OVCAR-3 ovarian was more than 100 µM in each case.
As to `Cn1ccc(C(=O)NCCN(CCNC(=O)c2ccn(C)c(=O)c2O)CCNC(=O)c2ccn(C)c(=O)c2O)c(O)c1=O`, the TGI in the assay on A549 NSCLC, in the assay on UO-31 renal, in the assay with M14 melanoma, with OVCAR-8 ovarian, in the assay with HOP-92 NSCLC and in the assay on RXF 393 renal was more than 100 µM throughout. In addition, the TGI in the assay on NCI-H460 lung and in the assay with OVCAR-3 ovarian was more than 100 µM throughout.
For `NNC(=O)CCSc1ccccc1`, the TGI with A549 NSCLC, with UO-31 renal, in the assay on M14 melanoma, in the assay with OVCAR-8 ovarian, in the assay with RXF 393 renal and in the assay on NCI-H460 lung was more than 100 µM in each case. The TGI in the assay on OVCAR-3 ovarian is more than 100 µM.
In the case of `O=c1/c(=C/c2ccc([N+](=O)[O-])o2)sc2n1[C@@H](c1ccc(Cl)cc1)C=C(c1cc(F)c(Cl)cc1Cl)N=2`, the TGI in the assay with A549 NSCLC was 86.9 µM; in the assay on UO-31 renal, 32.5 µM; with M14 melanoma, 29.1 µM; with OVCAR-8 ovarian, 40.8 µM; in the assay on HOP-92 NSCLC, 28.5 µM; with RXF 393 renal, 28.5 µM. Besides, the TGI in the assay with NCI-H460 lung amounted to 24.3 µM.
Regarding `CN(C)CCCSc1nc2c(c(=N)n1-c1ccccc1)c(=S)n(-c1ccccc1)c(=S)n2-c1ccccc1`, the TGI in the assay on A549 NSCLC is 4.58 µM; in the assay on M14 melanoma, 3.76 µM; in the assay on OVCAR-8 ovarian, 3.2 µM; in the assay on HOP-92 NSCLC, 3.24 µM; in the assay on RXF 393 renal, 3.06 µM; with NCI-H460 lung, 3.24 µM. This compound also showed a TGI in the assay on OVCAR-3 ovarian of 3.12 µM.
Take `COc1cc(/C=N\c2nc(-c3ccc(NS(=O)(=O)c4ccc(Cl)c(OC)c4)cc3)cs2)ccc1O`: the TGI in the assay with A549 NSCLC is more than 100 µM; in the assay with UO-31 renal it was more than 100 µM; with M14 melanoma, more than 100 µM; with OVCAR-8 ovarian, more than 100 µM; with HOP-92 NSCLC it was more than 100 µM; in the assay on RXF 393 renal it was 80.8 µM. For the same compound, the TGI with OVCAR-3 ovarian was more than 100 µM.
Turning to `COc1ccc(C(O)(c2ccccc2)c2nccc3ccccc23)cc1` (stereo not drawn), the TGI in the assay with A549 NSCLC was more than 100 µM; with UO-31 renal it was more than 100 µM; in the assay with M14 melanoma, 8.34 µM; with OVCAR-8 ovarian it was more than 100 µM; in the assay with RXF 393 renal, 44.2 µM; in the assay on NCI-H460 lung, 38.9 µM. Also, the TGI in the assay with OVCAR-3 ovarian worked out at 6.32 µM.
As to `Cc1ccc(N=NC(=Nc2ccc(Cl)cc2)c2ccc(N(CCC#N)CCC#N)cc2)cc1`, the TGI with A549 NSCLC, with UO-31 renal, in the assay with M14 melanoma, in the assay with OVCAR-8 ovarian, in the assay with HOP-92 NSCLC and in the assay with RXF 393 renal was more than 100 µM in each case. Besides, the TGI in the assay on NCI-H460 lung and in the assay with OVCAR-3 ovarian was more than 100 µM in each case.
As for `COc1ccc(-c2cc(-c3ccc(O)cc3O)c(C#N)c(=O)[nH]2)cc1`, the TGI in the assay with A549 NSCLC was found to be 62 µM; with UO-31 renal, 69.6 µM; in the assay on M14 melanoma, 35.4 µM; with OVCAR-8 ovarian it was 85.2 µM; in the assay on HOP-92 NSCLC, 31 µM; in the assay with RXF 393 renal, 35.4 µM. Also, the TGI in the assay with NCI-H460 lung worked out at 59.7 µM; in the assay on OVCAR-3 ovarian it was 48.6 µM.
As to `Cc1ccc(C(=O)Cn2c(C(=O)/C=C/c3cccs3)nc3ccccc32)cc1`, the TGI in the assay on A549 NSCLC, in the assay with UO-31 renal, in the assay with M14 melanoma, in the assay with HOP-92 NSCLC, in the assay on RXF 393 renal and with NCI-H460 lung was more than 100 µM throughout. This compound registered a TGI in the assay with OVCAR-3 ovarian of more than 100 µM.
As for `Nc1ccc(Oc2ccc(C3(c4ccc(Oc5ccc(N)cc5)cc4)C4CC5CC(C4)CC3C5)cc2)cc1`, the TGI was 42.2 µM in the assay with A549 NSCLC; 21.4 µM with UO-31 renal; 17 µM in the assay on M14 melanoma; more than 48.9 µM with OVCAR-8 ovarian; 35.9 µM in the assay on HOP-92 NSCLC; 20.9 µM in the assay on RXF 393 renal. The values for the TGI in the assay on NCI-H460 lung and in the assay with OVCAR-3 ovarian were more than 100 µM and 9.78 µM, respectively.
Regarding `Cc1c2c(OCC(O)CN3CCN(c4ccccc4)CC3)nn(C)c(=O)c2c(C)n1-c1ccccc1` (stereo not drawn), the TGI in the assay with A549 NSCLC is 73.7 µM; in the assay on UO-31 renal, 43.2 µM; in the assay on M14 melanoma, 30.7 µM; with OVCAR-8 ovarian, more than 100 µM; in the assay on HOP-92 NSCLC, more than 100 µM; in the assay on RXF 393 renal, 70.2 µM. Besides, the TGI came to 57.7 µM in the assay on NCI-H460 lung and 45.5 µM in the assay on OVCAR-3 ovarian.
`CC(=O)O[C@@H]1C(=O)N(c2ccccc2)[C@@H]1c1cc2ccccc2c2ccccc12`: the TGI in the assay with A549 NSCLC is more than 100 µM; in the assay with UO-31 renal, 87 µM; in the assay on M14 melanoma, more than 100 µM; in the assay on OVCAR-8 ovarian it was more than 100 µM; with HOP-92 NSCLC, more than 100 µM; in the assay with RXF 393 renal, 62.6 µM. Also, the TGI with NCI-H460 lung is more than 100 µM; with OVCAR-3 ovarian, 83.4 µM.
As for `O=C(Nc1ccc(-n2cc(-c3ccncc3)c(-c3ccc(O)c(Cl)c3)n2)cc1)Nc1ccc(Cl)c(C(F)(F)F)c1`, the GI50 with A549 NSCLC was 3.6 µM; in the assay on UO-31 renal, 3.01 µM; in the assay on M14 melanoma it was 2.48 µM; in the assay on OVCAR-8 ovarian it was 4.11 µM; in the assay on HOP-92 NSCLC, 1.82 µM; in the assay with RXF 393 renal it was 1.67 µM. In addition, the GI50 in the assay with NCI-H460 lung was 3.33 µM; with OVCAR-3 ovarian, 3.23 µM. In addition, the TGI in the assay with A549 NSCLC was 17.4 µM; in the assay with UO-31 renal, 16.4 µM; with M14 melanoma, 6.33 µM; in the assay with OVCAR-8 ovarian, 21.3 µM; with HOP-92 NSCLC, 5 µM; with RXF 393 renal, 3.56 µM. Also, the figures for the TGI with NCI-H460 lung and with OVCAR-3 ovarian were 11.4 µM and 10.9 µM, respectively.
For `CCOC(=O)C(Cc1cn(C(C)=O)c2ccccc12)P(=O)(OCC)OCC` (stereo not drawn), the TGI with A549 NSCLC, in the assay with UO-31 renal, in the assay with M14 melanoma, in the assay on OVCAR-8 ovarian, with HOP-92 NSCLC and in the assay with NCI-H460 lung was more than 100 µM throughout. Also, the TGI with OVCAR-3 ovarian was more than 100 µM.
`C/C(=N\NC(=S)NCCCCNC(=S)N/N=C(\C)c1ccccn1)c1ccccc1`: the TGI was more than 58 µM with A549 NSCLC; 13.1 µM in the assay with UO-31 renal; 5.63 µM with OVCAR-8 ovarian; more than 57.3 µM in the assay on HOP-92 NSCLC; more than 23.1 µM with RXF 393 renal; 4.71 µM with NCI-H460 lung. Further, the TGI in the assay with OVCAR-3 ovarian is more than 65.2 µM.
Consider `COc1ccc(OC)c(C2CCc3c(cnc4nc(N)nc(N)c34)C2)c1` (stereo not drawn), for which the TGI came out at 15 µM in the assay with A549 NSCLC; 17.3 µM in the assay with M14 melanoma; 21.6 µM in the assay with OVCAR-8 ovarian; 26.3 µM in the assay with HOP-92 NSCLC; 32.1 µM with RXF 393 renal; 21.6 µM in the assay with NCI-H460 lung. This compound had a TGI in the assay with OVCAR-3 ovarian of 31.3 µM.
As for `C/C(=N\NC(=S)N(C)C)c1nc2ncccc2[nH]1`, the TGI in the assay with A549 NSCLC was more than 100 µM; in the assay with UO-31 renal it was 1.89 µM; with OVCAR-8 ovarian it was more than 100 µM; in the assay with HOP-92 NSCLC it was 0.928 µM; in the assay on RXF 393 renal, more than 100 µM; with NCI-H460 lung, more than 100 µM.
With `CC(C)CC(=O)NC(C(=O)NC(C(=O)NC(CC(C)C)C(O)CC(=O)NC(C)C(=O)NC(CC(C)C)C(O)CC(=O)O)C(C)C)C(C)C` (stereo not drawn), the TGI in the assay on A549 NSCLC, in the assay with UO-31 renal, in the assay with M14 melanoma, in the assay with OVCAR-8 ovarian, with HOP-92 NSCLC and in the assay with NCI-H460 lung was more than 100 µM throughout. The compound further had a TGI in the assay on OVCAR-3 ovarian of more than 100 µM.
